In patent US20030198941A1, “Method for making an HIV vaccine” (priority 2000, published 2003):
Where “and” joins values, the source holds several entries; their conditions need not be identical. Equal entries are not always repeated. Where two headings read alike, the source gives them in different places.

What was measured:
[1] = system: epitope-specific CD8+ PBMC of SIV-infected animals; type: cell-based, rhesus macaque; settings: for avidity of CTL response: PBMC specific for late escaping epitopes; for EC50: read-out: ½maximal IFN-γ release (peptide concentration)
[2] = system: Tat SL8- and Gag CM9-specific CTL lines; assay: 51Cr-release cytotoxicity assay with peptide dilutions, in vitro CTL lines; type: cell-based, rhesus macaque; settings: CTL lines generated with high (1 μM) and low (1 nM) peptide; read-out: ½maximal specific lysis (peptide concentration)
[3] = system: epitope-specific CTL lines; assay: Intracellular IFN-γ staining (ICS) with peptide dilutions, in vitro CTL lines; type: cell-based, rhesus macaque; settings: for avidity of CTL response: CTL lines against acute escaped epitopes
[4] = target: rhesus MHC class I molecule Mamu-A*01 (rhesus macaque); assay: competition with 125I-labeled […] for Mamu-A*01; relative to […]
[5] = target: rhesus MHC class I molecule Mamu-A*01 (rhesus macaque); assay: competition with 125I-labeled […] for Mamu-A*01; (1.0-relative binding average)x100
[6] = target: rhesus MHC class I molecule Mamu-A*01 (rhesus macaque)
[7] = system: rhesus MHC class I molecule Mamu-A*01; assay: Mamu-A*01 peptide binding assay (inhibition of binding of a radiolabeled probe peptide); set-up: species or system rhesus macaque; settings: for % Binding reduction: (1.0-relative binding average)x100, versus index peptide STPESANL; for IC50: soluble Mamu-A*01; for Relative Binding Average: relative to the binding affinity of Tat28-35 STPESANL to Mamu-A*01
Protocol: Quantitative assays for the binding of peptides to soluble Mamu-A*01 molecules on the basis of the inhibition of binding of a radiolabeled standard probe peptide to detergent-solubilized MHC molecules were performed as previously described (Allen, T. M., et al., J. Immunol. 160:6062-6071, 1998). A position 1 C→A analog of the SIV gag 181-190 peptide ([…]) was utilized as the radiolabeled probe. In the case of competitive assays, the concentration of peptide yielding 50% inhibition of the binding of the radiolabeled probe peptide was calculated. Peptides were initially tested at one or two high doses. The IC50 of peptides yielding positive inhibition were then determined in subsequent experiments, in which two to six further dilutions were tested, as necessary. Since under the conditions to be utilized, where [label]<[MHC] and IC50 ≧[MHC], the measured IC50 values are reasonable approximations of the true Kd values. Each competitor peptide was tested in two to four completely independent experiments. As a positive control, in each experiment the unlabeled version of the radiolabeled probe was tested and its IC50 measured.

[8] = system: CTL lines stimulated with the SL8 index peptide; assay: CTL analyses of SL8-stimulated T-cell lines against index and variant peptides; type: cell-based, rhesus macaque; settings: E:T ratio 25:1, three peptide dilutions
Protocol: FIG. 3 is a set of six graphs describing CTL analyses of CD8-positive T-lymphocyte cell lines stimulated with SL8 peptide. Cell lines were stimulated with the index peptide (SL8) and autologous B-LCL. After 2 weeks in culture, these T-cell lines were used in CTL analyses at an Effector:Target (E:T) ratio of 25:1 with the index peptide and the variants. Three different dilutions of peptides were tested.
CTL cultures were established from peripheral blood samples of SIV-infected rhesus macaques drawn in EDTA tubes and CTL were cultured and assayed as previously described (Evans, D. T., et al., supra, 1999).

[9] = competition against 125-labeled peptide […]
[10] = competition against 125-labeled peptide ATPYDINQML

ARRHRILDIYL [Nef_AL11]
avidity of CTL response ([1]; ICS): low avidity

CTPYDINQM [Gag CM9]
EC50 [2]: 1 to 10 nM and 1 to 40 nM
EC50 [1]: 8 nM

GDYKLVEI [Env_GI8]
avidity of CTL response ([1]; ICS): low avidity

GLDKGLSSL [GL9]
avidity of CTL response [3]: high avidity

KRQQELLRL [Env_KL9]
avidity of CTL response ([1]; ICS): low avidity

STPESANL
EC50 [2]: 0.05 to 0.1 nM
EC50 ([1]; epitope-specific PBMC, ICS): 0.11 nM
EC50 ([3]; CTL lines generated in vitro, read-out: ½maximal IFN-γ production (peptide concentration)): < 0.5 nM

Tat28-35 variant ------P (proline at P8) (peptide)
Relative Binding Average [4]: 0.009
% Binding reduction [5]: > 99%

Tat28-35 variant ------Q (glutamine at P8) (peptide)
Relative Binding Average [4]: 0.003
% Binding reduction [5]: > 99%

Tat28-35 variant ------R (arginine at P8) (peptide)
Relative Binding Average [4]: 0.003
% Binding reduction [5]: > 99%

Tat28-35 variant ----L-- (leucine at P5) (peptide)
Relative Binding Average [4]: 0.155
% Binding reduction [5]: 85%

Tat28-35 variant -I---- (isoleucine at P2) (peptide)
Relative Binding Average [4]: 0.009
% Binding reduction [5]: > 99%

Tat28-35 variant P------ (proline at P1) (peptide)
% Binding reduction [6]: 67%
Relative Binding Average [4]: 0.43

YTSGPGIRY [YY9]
avidity of CTL response [3]: high avidity

variant of the Tat STPESANL epitope with arginine at P8 [------R]
% Binding reduction [7]: >99%
IC50 [7, 9]: 15100 nM
Relative Binding Average [7]: 0.003

variant of the Tat STPESANL epitope with glutamine at P8 [------Q]
% Binding reduction [7]: >99%
IC50 [7, 10]: 13200 nM
Relative Binding Average [7]: 0.003

variant of the Tat STPESANL epitope with isoleucine at P2 [-I----]
% Binding reduction [7]: >99%
IC50 [7, 9]: 4610 nM
Relative Binding Average [7]: 0.009

variant of the Tat STPESANL epitope with leucine at P5 [----L--]
% Binding reduction [7]: 85%
% Binding reduction ([7]; listed as leucine at P5): > 80%
% Binding reduction ([7]; listed as leucine substitution at P5): more than 80%
IC50 [7, 10]: 281 nM
Relative Binding Average [7]: 0.155
CTL recognition / sensitizing targets for CTL lysis [8]: least efficient at sensitizing targets for CTL lysis

variant of the Tat STPESANL epitope with proline at P1 [P------]
% Binding reduction [7]: 67%
% Binding reduction ([7]; listed as proline at P1): more than 50%
% Binding reduction ([7]; listed as proline substitution at P1): more than 50%
IC50 [7, 9]: 100 nM
Relative Binding Average [7]: 0.43

variant of the Tat STPESANL epitope with proline at P8 [------P]
% Binding reduction [7]: >99%
IC50 [7, 9]: 4570 nM
Relative Binding Average [7]: 0.009
